Experimental data reported in article PMC9501014, “Amaryllidaceae-Type Alkaloids from Pancratium maritimum: Apoptosis-Inducing Effect and Cell Cycle Arrest on Triple-Negative Breast Cancer Cells” (Molecules, 2022).
Where two headings read alike, the source gives them in different places.

Tests used:
[1] = system: MDA-MB-231 cells; assay: Sulforhodamine B antiproliferative assay, MDA-MB-231; format: cell-based, human; conditions: for IC50: sulforhodamine B assay, 48 h of treatment, read-out: IC50 MDA-MDB-231 (A); for SI E/A / SI D/A: selectivity index; for SI E/A: HFF-1 vs MDA-MB-231; for SI D/A: MCF12A vs MDA-MB-231
Description: (§1) The antiproliferative effect of the isolated compounds (1–11) was investigated by the sulforhodamine B assay against human triple-negative breast cancer cell lines (MDA-MB-468 and MDA-MB-231) and breast ductal carcinoma cells (MCF-7) and the non-tumorigenic fibroblast (HFF-1) and breast cell lines (MCF12A). The IC50 values were determined after 48 h of treatment (Table 1).
(§2) Human breast adenocarcinoma MDA-MB-231, MDA-MB-468, and MCF-7 cell lines and non-tumorigenic foreskin fibroblast (HFF-1) and breast (MCF12A) cell lines were purchased from American Type Culture Collection (ATCC, Rockville, MD, USA). All cancer cell lines, except MCF12A, were routinely cultured in RPMI-1640 medium with glutamine from Corning (VWR, Carnaxide, Portugal) supplemented with 10% fetal bovine serum (FBS) from Biowest (Labclinics, Barcelona, Spain). MCF12A cells were cultured in a 1:1 mixture of Dulbecco’s modified Eagle’s medium and Ham’s F12 medium, 20 ng/mL human epidermal growth factor, 100 ng/mL cholera toxin, 0.01 mg/mL bovine insulin, and 500 ng/mL hydrocortisone and supplemented with 10% FBS. All cells were maintained in a humidified incubator at 37 °C with 5% CO2. All cells were routinely tested for mycoplasma contamination using the MycoAlertTM PLUS detection kit (Lonza, Basel, Switzerland).
(§3) Human cell lines were seeded in 96-well plates at a density of 5.0 × 10^3 (MDA-MB-231, MCF-7, HFF-1, and MCF12A) and 7.5 × 10^3 (MDA-MB-468) cells/well and allowed to adhere for 24 h. Cells were treated with serial dilutions of compounds (ranging from 0.1 to 40 μM) for an additional 48 h. Effect on cell proliferation was measured by sulforhodamine B assay, as described in [33], and the half-maximal inhibitory concentration (IC50) was then determined for each cell line using the GraphPad Prism software version 7.0 (La Jolla, CA, USA).

[2] = system: MDA-MB-468 cells; assay: Sulforhodamine B antiproliferative assay, MDA-MB-468; format: cell-based, human; conditions: for IC50: sulforhodamine B assay, 48 h of treatment; for SI E/B / SI D/B: selectivity index; for SI E/B: HFF-1 vs MDA-MB-468; for SI D/B: MCF12A vs MDA-MB-468
Description: as §1, §2, §3

[3] = system: MCF-7 cells; assay: Sulforhodamine B antiproliferative assay, MCF-7; format: cell-based, human; conditions: for IC50: sulforhodamine B assay, 48 h of treatment, read-out: IC50 MCF-7 (C); for SI E/C / SI D/C: selectivity index; for SI E/C: HFF-1 vs MCF-7; for SI D/C: MCF12A vs MCF-7
Description: as §1, §2, §3

[4] = system: MCF12A cells; assay: Sulforhodamine B antiproliferative assay, non-tumorigenic breast MCF12A; format: cell-based; conditions: Homo sapiens, MCF-12A, 48 h of treatment, read-out: IC50 MCF12A (D)
Description: as §1, §2, §3

[5] = system: HFF-1 cells; assay: Sulforhodamine B antiproliferative assay, non-tumorigenic fibroblast HFF-1; format: cell-based; conditions: Homo sapiens, 48 h of treatment, read-out: IC50 HFF-1 (E)
Description: as §1, §2, §3

[6] = system: breast cancer cell lines (MDA-MB-231, MDA-MB-468, MCF-7); assay: Sulforhodamine B assay, all breast cancer cell lines; format: cell-based; conditions: Homo sapiens, read-out: IC50 values against all breast cancer cell lines
Description: Aiming to find Amaryllidaceae alkaloids against breast cancer, including the highly aggressive triple-negative breast cancer, the phytochemical study of Pancratium maritimum was carried out. Several Amaryllidaceae-type alkaloids, bearing scaffolds of the haemanthamine-, homolycorine-, lycorine-, galanthamine-, and tazettine-type were isolated (3–11), along with one alkamide (2) and a phenolic compound (1). The antiproliferative effect of compounds (1–11) was evaluated by the sulforhodamine B assay against triple-negative breast cancer cell lines MDA-MB-231 and MDA-MB-468, breast cancer cells MCF-7, and the non-malignant fibroblast (HFF-1) and breast (MCF12A) cell lines. […] The homolycorine-type alkaloid 7 was selected for further investigation in MDA-MB-231 cells. In the annexin-V assay, compound 7 increased cell death by apoptosis, which was substantiated, in western blot analyses, by the increased expression of the pro-apoptotic protein Bax, and the decreased expression of the anti-apoptotic protein Bcl-xL. Consistently, it further stimulated mitochondrial reactive oxygen species (ROS) generation. The antiproliferative effect of compound 7 was also associated with G2/M cell cycle arrest, which was supported by an increase in the p21 protein expression levels.
as §3

[7] = system: MDA-MB-231 cells; design: method as in PMID 28756149; conditions: previous studies ref 30; cited from earlier work
[8] = range over the four alkaloids and MDA-MB-231, MDA-MB-468, MCF-7

`COc1cc(O)c(C(C)=O)c(OC)c1` [Compound 1, 4,6-dimethoxy-2-hydroxy acetophenone] gave an IC50 ([1]; Homo sapiens, MDA-MB-231, 48 h) of over 40000 nM.
In the case of `O[C@H]1[C@H]2c3cc4c(cc3CN3CCC(=C[C@@H]1O)[C@H]23)OCO4` [Compound 5, lycorine], the IC50 ([1]; Homo sapiens, MDA-MB-231, 48 h) is reported as 920 nM, the “SI E/A” value [1] is reported as 1.41 and the “SI D/A” value [1] is reported as 3.26. The IC50 [1] was 900 ± 200 nM, the IC50 ([2]; Homo sapiens, MDA-MB-468, 48 h) was 1420 nM and the “SI E/B” value [2] was 0.91. The “SI D/B” value [2] was 2.11, the IC50 [2] was 1400 ± 10 nM and the IC50 ([3]; Homo sapiens, MCF7, 48 h) was 730 nM. The “SI E/C” value [3] was 1.78, the IC50 [3] was 700 ± 10 nM and the IC50 [4] was 3000 ± 300 nM. For the same compound, the IC50 [5] was 1300 ± 300 nM, the IC50 [6, 8] was 730 to 16300 nM and the “antiproliferative activity against MDA-MB-231 breast cancer cells” value [7] was “antiproliferative activity”.
Compound `CN1CCC2=C[C@H](O)C3OC(=O)c4cc5c(cc4C3C21)OCO5` (stereo partly drawn) [Compound 4, hippeastrine] has an IC50 ([1]; Homo sapiens, MDA-MB-231, 48 h) of 24700 ± 4300 nM.
For `CO[C@@H]1C=C[C@@]23c4cc5c(cc4[C@@H](O)N(C[C@H]2O)[C@H]3C1)OCO5` [Compound 3, haemanthidine], the IC50 ([1]; Homo sapiens, MDA-MB-231, 48 h) was 4880 nM, the “SI E/A” value [1] was 0.56 and the “SI D/A” value [1] was 1.02. For the same compound, the IC50 [1] was 4900 ± 1160 nM, the IC50 ([2]; Homo sapiens, MDA-MB-468, 48 h) was 3500 ± 300 nM and the “SI E/B” value [2] was 0.78. The “SI D/B” value [2] was 1.42, the IC50 ([3]; Homo sapiens, MCF7, 48 h) was 2700 ± 100 nM and the “SI E/C” value [3] was 1.01. For the same compound, the “SI D/C” value [3] was 1.85, the IC50 [4] was 5000 ± 500 nM and the IC50 [5] was 2700 ± 150 nM. For the same compound, the IC50 [6, 8] was 730 to 16300 nM and the “antiproliferative activity against MDA-MB-231 breast cancer cells” value [7] was “antiproliferative activity”.
For `COc1cc([C@@H]2c3cc4c(cc3[C@@H](O[C@@H]3O[C@@H]5CO[C@@H](C)O[C@H]5[C@H](O)[C@H]3O)[C@H]3COC(=O)[C@H]23)OCO4)cc(OC)c1O` [Etoposide, reference compound], the IC50 ([1]; Homo sapiens, MDA-MB-231, 48 h) was 2900 ± 100 nM, the “SI E/A” value [1] was 1.31 and the “SI D/A” value [1] was 0.79. For the same compound, the IC50 ([2]; Homo sapiens, MDA-MB-468, 48 h) was 1700 ± 50 nM, the “SI E/B” value [2] was 2.23 and the “SI D/B” value [2] was 1.35. For the same compound, the IC50 ([3]; Homo sapiens, MCF7, 48 h) was 3100 ± 50 nM, the “SI E/C” value [3] was 1.23 and the “SI D/C” value [3] was 0.74. The IC50 [4] was 2300 ± 130 nM and the IC50 [5] was 3800 ± 90 nM.
For `COc1cc(/C=C/C(=O)NCCc2ccc(O)cc2)ccc1O` [Compound 2, N-trans-feruloyl-tyramine], the IC50 ([1]; Homo sapiens, MDA-MB-231, 48 h) was over 40000 nM.
`CO[C@@H]1C=C[C@@]23c4cc5c(cc4CO[C@]2(O)CN(C)[C@H]3C1)OCO5` [Compound 10, tazettine] showed an IC50 ([1]; Homo sapiens, MDA-MB-231, 48 h) of 39000 ± 1410 nM.
In the case of `COC1C=CC23c4cc5c(cc4CN(CC2O)C3C1)OCO5` (stereo not drawn) [Compound 11, haemanthamine], the IC50 ([1]; Homo sapiens, MDA-MB-231, 48 h) is reported as 3950 nM, the “SI E/A” value [1] is reported as 0.68 and the “SI D/A” value [1] is reported as 1.64. For the same compound, the IC50 [1] was 3900 ± 970 nM, the IC50 ([2]; Homo sapiens, MDA-MB-468) was 3800 ± 400 nM and the “SI E/B” value [2] was 0.71. The “SI D/B” value [2] was 1.71, the IC50 ([3]; Homo sapiens, MCF7) was 1600 ± 100 nM and the “SI E/C” value [3] was 1.7. The IC50 [4] was 6500 ± 1100 nM, the IC50 [5] was 2700 ± 720 nM and the IC50 [6] was 730 to 16300 nM. The “antiproliferative activity against MDA-MB-231 breast cancer cells” value [7] was “antiproliferative activity”.
With `COc1ccc2c3c1O[C@H]1C[C@H](O)C=C[C@@]31CCN(C)C2` [Compound 8, epi-galanthamine] the IC50 ([1]; Homo sapiens, MDA-MB-231, 48 h) was over 40000 nM.
`COc1cc2c(cc1O)C(=O)OC1CC=C3CCN(C)C3C21` (stereo not drawn) [Compound 9, 8-O-demethylhomolycorine] showed an IC50 ([1]; Homo sapiens, MDA-MB-231, 48 h) of over 40000 nM.
`COc1ccc2c3c1O[C@H]1C[C@@H](O)C=C[C@@]31C(O)CN(C)C2` (stereo partly drawn) [Compound 6, 11α-hydroxygalanthamine] gave an IC50 ([1]; Homo sapiens, MDA-MB-231, 48 h) of over 40000 nM.
